Data set [1] relates to BV2 cells, murine microglia. As to the kind of experiment: Cytotoxicity, MTT assay in BV2 cells. Format: cell-based. The following applies: for cytotoxicity in BV2 cell: 10, 50, 100 μM, 24 and 48 hours. The protocol: Cytoprotective effect was determined by MTT reduction assay. […] After incubations for 24 hours and 48 hours, the incubated cells were washed with PBS, 100 μl of MTT (0.5 mg/ml final concentration) was added to each wells, and incubation was continued for another 4 hours for a reduction of MTT. […] Relative cell viability was calculated as a percentage compared with the absorbance of the untreated control group.

Data set [2] relates to PC12 cells co-cultured with BV2 cells. In words: Co-culture of Aβ42-activated BV2 cells and PC12 cells, MTT assay. The following applies: 100 μM peptide, 48 hours, 5 uM Aβ42. In general terms: Tetrazolium assays rely on reduction of a dye to a coloured formazan, in cell work by metabolically active cells.
Procedure: For the co-culture of microglia and PC12 cells, which has been employed to assess the neurotoxin effect of activated microglia, microglia was first seeded onto cell culture inserts (pore size of 0.2 μm; SPL, Korea). After overnight incubation, microglia were left untreated or exposed 5 uM Aβ42 in the presence or absence of peptides for 24 h. Afterwards, the microglial cells were co-cultured with PC12 cells by transferring the culture inserts containing microglia onto PC12 cell monolayers (see FIG. 15).
In order to confirm cell viability of co-cultured PC12 cell, MTT assay was performed.
Data set [3] deals with nerve cells-differentiated PC12 cells.
Procedure: The present inventors induced a nerve toxin in PC12 cells by differentiating PC12 cells into nerve cells through treating with NGF, and then treating to the differentiated PC12 cells with 20 μM of Aβ42 for 24 hours.
Cytoprotective effect was determined by MTT reduction assay. […] After incubation for 24 hours, 100 μl of MTT (1 mg/ml final concentration) was added to each of wells and incubation was continued for another 4 hours. MTT is used as an indicator of cell viability through its mitochondrial reduction to formazan. Mitochondrial succinate dehydrogenase in live cells converts MTT into visible formazan crystals during incubation. The formazan crystals were then solubilized in DMSO and the absorbance was measured at 540 nm by using enzyme-linked immunosorbent assay (ELISA) microplate reader (Tecan GmbH, Austria). Relative cell viability was calculated compared with the absorbance of the untreated control group.
The subject of data set [4] is NO. In words: NO production, Griess reaction in Aβ42-stimulated BV2 cells. In kind it is cell-based, murine. The following applies: stimulation with Aβ42 alone (control), 1 μM 48 h. The protocol:
NO levels in the cultured BV2 cells' supernatants were measured by the Griess reaction. In brief, BV2 cells were pre incubated overnight in 24-well plates using DMEM without phenol red at a density 2×10^5 cells/ml, followed by the treatment with the HIP-1 peptide of the present invention having various concentrations (10, 50, 100 μM) as a sample for 6 h. After 6 h, the NO production was stimulated by adding Aβ42 (1 μM final concentration) and incubated for further 48 h. Then 50 μl of culture supernatants from each samples was mixed with the same volume of the Griess reagent [1% sulfanilamide/0.1% N-1-naphthyl]-ethylenediamine dihydrochloride/2.5% phosphoric acid] following the incubation for 15 min. Absorbance values were read at 540 nm using ELISA microplate reader (Tecan GmbH, Austria). Blank was not treated, and control was activated BV2 cells by exposing Aβ42 without the HIP-1 peptide of the present invention.
(In general: The Griess reaction detects nitrite, a stable product of nitric oxide.)

Consider 3 substances from US20140094414A1, “COMPOSITION FOR PREVENTING OR TREATING NEURODEGENERATIVE DISEASE INCLUDING BIOACTIVE PEPTIDE AS EFFECTIVE COMPONENT” (PUKYONG NATIONAL UNIVERSITY INDUSTRY-UNIVERSITY CO, priority 2012, published 2014).

No end group written: not given here.

For the substance FLHDVQ [HTP-2, FLHDVQ], in data set [1], the “cytotoxicity in BV2 cell” value is reported as “did not exhibit cytotoxicity”. The “cell viability of PC12 cells co-cultured with BV2 cells” value in data set [2] was 75.19±2.55%.
The matching figures for GTEDELDK [HTP-1]: “did not exhibit cytotoxicity” and 82.49±3.05%.
Consider amyloid-beta 42 [Aβ42], for which the “toxicity of Aβ42 in BV2 cells” value in data set [1] (Aβ42 0.1, 0.5, 1, 5, 10 μM) is recorded as “no toxicities”. In addition, in data set [3] (10 μM Aβ42, FIG. 2), the “cell viability of nerve cell-differentiated PC12 cells” value was “greatly decreased”. Further, the PC12 cell viability result in data set [3] (20 μM Aβ42 for 24 h) is “reduction”. Also, the “production of NO” value in data set [4] was found to be 24.59 ± 2.54 µM.
